≈ marks a conversion by molar mass, not a printed value.
Experiments:
Format in all cases: physicochemical
[1] = Solubility in the amide-based surfactant DMDA (Met10u)
[2] = Solubility of CBDA in mineral oil; settings: oil or lipid, under certain conditions
Solubility in water = test: Solubility in water
[3] = Thermal stability (decarboxylation) of CBDA; settings: in Met10u solution

Compound: C=C(C)[C@@H]1CCC(C)=C[C@H]1c1c(O)cc(CCCCC)c(C(=O)O)c1O [CBDA, Δ(9)-tetrahydrocannabidiolic acid]
- solubility of CBDA in Met10u ([1]; at 0 C): 1%
- solubility of CBDA in Met10u ([1]; at 60 C): 100%
- solubility in DMDA ([1]; at 70 C): over 1000 mg/ml DMDA
- solubility [2]: ~6000 µg/mL (≈ 16.7 mM)
- solubility of CBDA in water (Solubility in water; temperature of 4 degrees Celsius or lower, pH 4 or lower): below 20 micrograms per milliliter
- solubility of CBDA in water (Solubility in water; temperature of 70 degrees Celsius or higher, pH of 10 or higher): over 20 milligrams per milliliter
- temperature at which CBDA begins to lose its carboxylic moiety (decarboxylation) and become CBD [3]: at least 130 C
